Measured values from article PMC7827406, “Structure–Activity Relationship (SAR) Study of Spautin-1 to Entail the Discovery of Novel NEK4 Inhibitors” (International Journal of Molecular Sciences, 2021).
Like-named read-outs stand apart in the source and are kept apart here.

Assays:
Assay in all cases: biochemical
Parameters in all cases: Eurofins KinaseProfiler full panel at Km ATP, residual kinase activity (%) relative to DMSO
ASK1(h) = molecular target: T1, ASK1(h) (Homo sapiens, UniProt Q99683)
T1 construct: gene MAP3K5
T1 sequence (Q99683 1-1374): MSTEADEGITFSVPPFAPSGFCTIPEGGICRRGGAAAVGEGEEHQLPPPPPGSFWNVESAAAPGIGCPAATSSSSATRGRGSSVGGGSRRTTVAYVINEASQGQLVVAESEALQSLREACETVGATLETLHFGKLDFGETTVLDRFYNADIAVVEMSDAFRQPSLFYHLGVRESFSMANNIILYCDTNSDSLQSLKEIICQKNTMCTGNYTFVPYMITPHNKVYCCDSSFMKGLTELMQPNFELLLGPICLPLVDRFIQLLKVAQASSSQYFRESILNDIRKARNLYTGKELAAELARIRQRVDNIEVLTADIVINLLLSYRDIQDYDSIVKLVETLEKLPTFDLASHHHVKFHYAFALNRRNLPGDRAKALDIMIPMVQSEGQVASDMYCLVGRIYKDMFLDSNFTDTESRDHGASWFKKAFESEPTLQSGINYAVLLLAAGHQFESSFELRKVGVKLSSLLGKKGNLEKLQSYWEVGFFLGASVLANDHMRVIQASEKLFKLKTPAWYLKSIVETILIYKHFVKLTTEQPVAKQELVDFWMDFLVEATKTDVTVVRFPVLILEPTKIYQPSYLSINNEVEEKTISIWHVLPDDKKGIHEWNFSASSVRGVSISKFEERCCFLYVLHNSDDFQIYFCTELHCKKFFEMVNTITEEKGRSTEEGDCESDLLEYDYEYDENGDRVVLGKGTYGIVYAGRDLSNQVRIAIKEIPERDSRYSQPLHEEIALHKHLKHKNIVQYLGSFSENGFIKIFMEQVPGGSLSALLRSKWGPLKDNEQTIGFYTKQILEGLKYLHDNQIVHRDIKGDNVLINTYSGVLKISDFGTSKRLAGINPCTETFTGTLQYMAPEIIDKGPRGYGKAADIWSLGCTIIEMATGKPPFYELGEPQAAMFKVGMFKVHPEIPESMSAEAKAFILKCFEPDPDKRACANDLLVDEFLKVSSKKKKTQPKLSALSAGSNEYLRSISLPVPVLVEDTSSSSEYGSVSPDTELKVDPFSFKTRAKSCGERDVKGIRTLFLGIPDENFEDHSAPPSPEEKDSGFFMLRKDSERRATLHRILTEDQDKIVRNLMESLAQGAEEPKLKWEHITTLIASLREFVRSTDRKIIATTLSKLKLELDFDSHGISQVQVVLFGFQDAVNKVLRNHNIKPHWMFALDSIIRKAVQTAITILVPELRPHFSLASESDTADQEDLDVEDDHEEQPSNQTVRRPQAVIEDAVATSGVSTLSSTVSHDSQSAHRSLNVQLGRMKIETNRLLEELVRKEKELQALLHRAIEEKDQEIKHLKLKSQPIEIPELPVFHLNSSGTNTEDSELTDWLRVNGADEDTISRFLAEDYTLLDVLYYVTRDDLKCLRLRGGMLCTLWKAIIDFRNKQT
How it was run: (§1)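 Radiometric kinase activity assays were run with ATP at Km and compounds at 10 µM, and remaining activity (%) was reported. A separate competitive binding screen measured DNA-tagged kinase displaced from immobilized active-site ligands by qPCR, giving percent kinase still bound at 10 µM compound in DMSO.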

Abl(T315I)(h) = molecular target: T2, Abl(T315I)(h) (Homo sapiens, UniProt P00519, T315I)
T2 construct: gene ABL1
How it was run: as §1

MARK3(h) = MARK3(h) (Homo sapiens, UniProt P27448)
Chain of MARK3(h) (P27448 whole entry): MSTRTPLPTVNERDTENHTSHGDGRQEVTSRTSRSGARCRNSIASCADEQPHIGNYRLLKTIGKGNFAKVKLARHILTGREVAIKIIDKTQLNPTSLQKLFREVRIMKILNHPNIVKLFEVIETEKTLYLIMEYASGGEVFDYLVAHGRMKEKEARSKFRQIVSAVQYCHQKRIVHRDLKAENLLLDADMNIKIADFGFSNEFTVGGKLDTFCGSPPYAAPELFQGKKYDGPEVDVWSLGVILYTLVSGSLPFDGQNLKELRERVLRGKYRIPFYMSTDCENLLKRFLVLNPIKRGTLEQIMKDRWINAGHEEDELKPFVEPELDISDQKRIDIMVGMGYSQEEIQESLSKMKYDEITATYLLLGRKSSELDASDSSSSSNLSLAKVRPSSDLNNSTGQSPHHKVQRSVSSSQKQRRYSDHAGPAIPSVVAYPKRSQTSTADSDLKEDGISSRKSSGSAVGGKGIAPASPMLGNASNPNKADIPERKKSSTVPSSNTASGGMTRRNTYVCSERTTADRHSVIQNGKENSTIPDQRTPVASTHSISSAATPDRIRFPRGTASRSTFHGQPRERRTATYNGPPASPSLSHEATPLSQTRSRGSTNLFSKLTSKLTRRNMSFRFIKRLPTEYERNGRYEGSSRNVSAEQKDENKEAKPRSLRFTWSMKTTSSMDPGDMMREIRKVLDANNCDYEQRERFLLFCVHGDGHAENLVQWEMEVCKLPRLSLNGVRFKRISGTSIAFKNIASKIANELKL
How it was run: as §1

PI3 Kinase (p120g)(h) = molecular target: T3, PI3 Kinase (p120g)(h) (Homo sapiens, UniProt P48736)
T3 construct: gene PIK3CG
T3 sequence (P48736 whole entry): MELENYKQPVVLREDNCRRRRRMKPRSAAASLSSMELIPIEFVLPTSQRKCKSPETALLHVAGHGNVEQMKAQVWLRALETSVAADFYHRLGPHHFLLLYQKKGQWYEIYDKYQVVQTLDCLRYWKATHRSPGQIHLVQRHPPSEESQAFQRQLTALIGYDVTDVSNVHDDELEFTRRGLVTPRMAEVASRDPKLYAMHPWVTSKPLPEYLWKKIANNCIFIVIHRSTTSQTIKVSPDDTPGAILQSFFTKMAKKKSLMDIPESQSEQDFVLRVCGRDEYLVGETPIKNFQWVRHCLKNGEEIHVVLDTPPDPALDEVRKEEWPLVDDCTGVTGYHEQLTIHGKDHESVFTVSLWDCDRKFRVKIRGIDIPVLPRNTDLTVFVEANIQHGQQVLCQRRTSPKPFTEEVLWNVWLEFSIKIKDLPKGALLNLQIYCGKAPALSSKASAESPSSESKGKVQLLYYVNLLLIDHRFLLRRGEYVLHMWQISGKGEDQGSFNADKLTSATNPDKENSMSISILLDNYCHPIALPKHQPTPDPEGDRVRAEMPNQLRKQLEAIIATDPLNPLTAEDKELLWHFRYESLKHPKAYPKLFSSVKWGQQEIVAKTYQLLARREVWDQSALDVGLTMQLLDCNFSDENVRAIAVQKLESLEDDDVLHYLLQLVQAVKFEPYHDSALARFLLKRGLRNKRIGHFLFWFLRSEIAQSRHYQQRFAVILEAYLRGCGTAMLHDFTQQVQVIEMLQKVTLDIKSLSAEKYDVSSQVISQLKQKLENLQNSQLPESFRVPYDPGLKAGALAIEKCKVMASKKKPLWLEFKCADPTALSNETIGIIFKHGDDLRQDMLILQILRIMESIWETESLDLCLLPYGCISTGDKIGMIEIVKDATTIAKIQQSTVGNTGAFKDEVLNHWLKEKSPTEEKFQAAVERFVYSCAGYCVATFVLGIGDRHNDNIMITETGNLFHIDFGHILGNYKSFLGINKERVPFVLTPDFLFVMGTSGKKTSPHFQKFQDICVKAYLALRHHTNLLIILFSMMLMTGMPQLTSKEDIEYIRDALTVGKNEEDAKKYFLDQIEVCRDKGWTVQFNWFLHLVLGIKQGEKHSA
How it was run: as §1

SNRK(h) = molecular target: T4, SNRK(h) (Homo sapiens, UniProt Q9NRH2)
T4 sequence (Q9NRH2 1-765): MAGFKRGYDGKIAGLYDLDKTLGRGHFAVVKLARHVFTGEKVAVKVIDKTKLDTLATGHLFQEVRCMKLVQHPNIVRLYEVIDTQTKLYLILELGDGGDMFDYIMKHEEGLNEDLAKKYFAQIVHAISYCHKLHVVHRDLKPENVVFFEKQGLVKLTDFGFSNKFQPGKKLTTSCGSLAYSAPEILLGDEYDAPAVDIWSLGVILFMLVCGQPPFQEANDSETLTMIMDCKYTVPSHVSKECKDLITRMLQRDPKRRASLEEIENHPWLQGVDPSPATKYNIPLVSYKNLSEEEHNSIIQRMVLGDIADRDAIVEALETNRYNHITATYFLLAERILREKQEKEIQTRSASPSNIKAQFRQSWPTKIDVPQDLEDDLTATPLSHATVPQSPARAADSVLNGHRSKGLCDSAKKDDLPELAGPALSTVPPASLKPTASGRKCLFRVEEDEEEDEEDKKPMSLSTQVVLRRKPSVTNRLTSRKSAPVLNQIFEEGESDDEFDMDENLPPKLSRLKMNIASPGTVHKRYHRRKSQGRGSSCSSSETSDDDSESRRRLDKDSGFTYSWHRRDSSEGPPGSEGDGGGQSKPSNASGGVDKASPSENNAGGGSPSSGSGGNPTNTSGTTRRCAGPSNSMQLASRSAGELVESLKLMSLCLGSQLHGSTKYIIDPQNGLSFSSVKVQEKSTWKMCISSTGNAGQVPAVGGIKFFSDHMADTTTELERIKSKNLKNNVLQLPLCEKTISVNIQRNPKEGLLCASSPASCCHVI
How it was run: as §1

[1] = read-out: Residual activity (%) 5ay
[2] = read-out: Residual activity (%) Spautin-1 5aa
[3] = read-out: Residual activity (%) 5at
[4] = read-out: Residual activity (%) 5as

In the case of `COc1ccc2ncnc(Nc3cccc(F)c3)c2c1` [5ay, N-(3-Fluorophenyl)-6-Methoxy-4-Quinazolinamine], the remaining activity at 10 µM (ASK1(h); [1]) is reported as 99%, the remaining activity at 10 µM (Abl(T315I)(h); [1]) is reported as 91% and the remaining activity at 10 µM (MARK3(h); [1]) is reported as 89%. For the same compound, the remaining activity at 10 µM (PI3 Kinase (p120g)(h); [1]) was 91% and the remaining activity at 10 µM (SNRK(h); [1]) was 79%.

With `Fc1ccc(CNc2ncnc3ccc(F)cc23)cc1` [5aa, 6-Fluoro-N-(4-fluorobenzyl)-4-Quinazolinamine] the remaining activity at 10 µM (ASK1(h); [2]) was 95%, the remaining activity at 10 µM (Abl(T315I)(h); [2]) was 73% and the remaining activity at 10 µM (MARK3(h); [2]) was 95%. The remaining activity at 10 µM (PI3 Kinase (p120g)(h); [2]) was 91% and the remaining activity at 10 µM (SNRK(h); [2]) was 103%.

`Fc1ccc2ncnc(NCCc3ccc(Cl)cc3)c2c1` [5at, N-[2-(4-Chlorophenyl)Ethyl]-6-Fluoro-4-Quinazolinamine] was tested, and the remaining activity at 10 µM (ASK1(h); [3]) was 80%, the remaining activity at 10 µM (Abl(T315I)(h); [3]) was 80% and the remaining activity at 10 µM (MARK3(h); [3]) was 85%. For the same compound, the remaining activity at 10 µM (PI3 Kinase (p120g)(h); [3]) was 90% and the remaining activity at 10 µM (SNRK(h); [3]) was 103%.

Compound `Fc1ccc(CCNc2ncnc3ccc(F)cc23)cc1` [5as, 6-Fluoro-N-[2-(4-Fluorophenyl)Ethyl]-4-Quinazolinamine] has a remaining activity at 10 µM (ASK1(h); [4]) of 85%, a remaining activity at 10 µM (Abl(T315I)(h); [4]) of 101% and a remaining activity at 10 µM (MARK3(h); [4]) of 87%. For the same compound, the remaining activity at 10 µM (PI3 Kinase (p120g)(h); [4]) was 92% and the remaining activity at 10 µM (SNRK(h); [4]) was 104%.
